This is an account of results in patent publication US20170157251A1, “Bi-Specific Monovalent Diabodies That are Capable of Binding CD19 and CD3, and Uses Thereof” (MacroGenics, Inc., priority 2015, published 2017).

One series concerns indolent lymphomas. Conditions: retreatment with single agent; cited from earlier work.
A further series relates to target cell. The conditions noted are these: reported; cited from earlier work.
Another series addresses CD3 (Homo sapiens, UniProt P07766). The conditions noted are these: reported; read-out: affinity for CD3; cited from earlier work.
The target in a further series is T1, CD19 (Homo sapiens, UniProt P15391).
T1 sequence (P15391 20-556): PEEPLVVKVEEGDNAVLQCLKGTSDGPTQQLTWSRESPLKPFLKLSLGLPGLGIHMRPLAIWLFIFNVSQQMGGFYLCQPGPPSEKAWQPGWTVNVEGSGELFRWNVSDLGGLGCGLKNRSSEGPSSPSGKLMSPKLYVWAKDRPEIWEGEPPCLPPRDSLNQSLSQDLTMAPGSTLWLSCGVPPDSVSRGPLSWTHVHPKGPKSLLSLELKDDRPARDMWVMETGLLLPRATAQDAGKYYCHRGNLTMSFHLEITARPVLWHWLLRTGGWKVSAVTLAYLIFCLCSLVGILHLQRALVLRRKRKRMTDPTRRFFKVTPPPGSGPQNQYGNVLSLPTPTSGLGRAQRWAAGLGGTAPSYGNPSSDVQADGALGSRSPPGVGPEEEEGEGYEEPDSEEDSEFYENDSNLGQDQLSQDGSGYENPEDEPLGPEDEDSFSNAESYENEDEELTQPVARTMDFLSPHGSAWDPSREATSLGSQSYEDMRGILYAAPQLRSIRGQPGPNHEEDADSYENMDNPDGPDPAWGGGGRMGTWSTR
Conditions: reported; read-out: affinity for CD19; cited from earlier work.

The test system of series [1] is human CD4+ and CD8+ T cells. As to the kind of experiment: DART-A-mediated T cell activation (CD25) with Raji/GF cells and concomitant ibrutinib. In kind it is cell-based. As to the method: Assays were conducted as described above, except that: 1) fresh human T cells were substituted for ibrutinib pretreated human T cells; 2) 50 μL of T cells containing 200,000 cells were added into each well; and 3) 50 μL of ibrutinib solution at 10, 3, 1, 0.2, or 0 μM were added into the assay plates. […] The ibrutinib solutions were prepared by diluting a 1000 μM stock solution in 100% DMSO in assay medium with DMSO concentration being diluted to 1% DMSO. The final ibrutinib concentrations on the plate were 2500, 750, 250, 50, or 0 nM and the final DMSO concentration was 0.25%. Plates were incubated and processed as described previously.
However, the presence of ibrutinib inhibited DART-A-mediated CD25 upregulation in a concentration-dependent manner.

For series [2], the system named is human T cells. As to the kind of experiment: Ibrutinib alone on ex vivo T-cell cytokine production (ELISA). In kind it is cell-based. The procedure: (§1) Normal human T cells (100,000/well) were treated with increasing concentrations of ibrutinib (0 nM, 25 nM, 250 nM, 750 nM or 2500 nM) for 0, 24, 48, and 72 hours under ex vivo T-cell proliferation/activation conditions, which contained T-cell activator anti-CD3/CD28 Dynabeads and rhIL-2.
Production of IFN-γ, TNF-α, and IL-10 was measured by ELISA. […] Because of the minimal IL-6 cytokine production under the ex vivo T-cell proliferation/activation conditions tested, evaluation of ibrutinib's effect on IL-6 induction was not feasible.
For orientation: ELISA stands for enzyme-linked immunosorbent assay.

Series [3] concerns human T cells. As to the kind of experiment: Ibrutinib alone on ex vivo T-cell activation (CD25). In kind it is cell-based. The procedure:
as §1
The percentages of CD25 in CD4+ and CD8+ T cell subsets were determined by flow cytometry. The effect of ibrutinib treatment alone on upregulation of CD25, a T-cell activation marker, was also evaluated on T cells activated with anti-CD3/CD28 and rhIL2.

In the next series the test system is human PBMCs. As to the kind of experiment: T-cell activation and cytokine release with DART-A-mediated B-cell depletion in human PBMCs in the presence of ibrutinib. In kind it is cell-based. An excerpt:
(§2) An autologous B-cell depletion assay with human PBMCs, which comprise both target cells (CD19+ B cells) and effector cells (CD3+ T cells) in a physiologically relevant cellular context, was utilized to evaluate the effect of ibrutinib on DART-A-mediated primary B-cell depletion, concomitant T-cell activation, and cytokine release.

Another series deals with Raji/GF cells. As to the kind of experiment: DART-A-mediated redirected killing of Raji/GF cells using ibrutinib-pretreated T cells (luciferase). In kind it is cell-based, human. Conditions: T cells pretreated with 2500 nM ibrutinib. The procedure:
(§3) Suspension-cultured CD19-positive Raji/GF cells were harvested and washed with 1×DPBS or assay media containing RPMI 1640 without phenol red, 10% FBS, and pen/strep. Cell concentration and viability were measured by Trypan Blue dye exclusion using a Beckman Coulter Vi-Cell counter. The target cells were diluted in assay media to a cell density of 2×10^5 cells/mL. 50 μL of the diluted cell suspension was added to a 96-well, flat-bottom NUNCLON DELTA white plate (Thermo Scientific Cat #136101). For each treatment, duplicate wells were included. Human T cells, following treatment with ibrutinib for various times as described above, were collected and washed 3 times with assay media. After the final wash, the T cells were counted and resuspended in the assay medium at a cell density of 1×10^6 cells/mL and 100 μL were added to each well. […] The plates were incubated at room temperature in the dark for 10 minutes and then luciferase intensity was measured using a Victor2 Multilabel plate reader (Perkin Elmer #1420-014) with luciferase relative light unit (RLU) as the read-out. […] The percent cytotoxicity values were calculated as described below and concentration-response curves were generated using GraphPad Prism 6 software with curve fitting by the sigmoidal dose-response function.
Specific cell lysis was calculated from RLU data using the following formula: […]

The test system of a further series is Raji/GF target cells. As to the kind of experiment: DART-A-mediated redirected killing of Raji/GF cells with concomitant ibrutinib. In kind it is cell-based, human. The procedure: as §3, with “function. […]” for “function.”
In a further series the test system is primary B-cell (CD20+). As to the kind of experiment: DART-A-mediated autologous B-cell depletion with human PBMCs in the presence of ibrutinib. In kind it is cell-based.
Excerpt: as §2

Series [4] deals with human T cells. As to the kind of experiment: Ibrutinib alone on ex vivo T-cell proliferation (CellTiter-Glo). In kind it is cell-based. Conditions: 25, 250, 750 or 2500 nM, up to 3 days. As to the method: as §1
Cell viability was determined using the CellTiter-Glo® Luminescent Viability Assay with relative light units (RLU) proportional to the number of viable cells.

For series [5] the following is noted: once daily oral dose of 560 mg, cited from earlier work.

Sequence of CD3 (P07766 23-207): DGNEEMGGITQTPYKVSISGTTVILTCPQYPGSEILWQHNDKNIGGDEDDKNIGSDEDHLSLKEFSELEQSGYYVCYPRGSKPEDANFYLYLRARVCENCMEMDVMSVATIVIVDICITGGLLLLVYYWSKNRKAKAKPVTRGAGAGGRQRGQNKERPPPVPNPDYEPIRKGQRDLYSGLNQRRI
Sequence of CD3 (P04234 22-171 partner): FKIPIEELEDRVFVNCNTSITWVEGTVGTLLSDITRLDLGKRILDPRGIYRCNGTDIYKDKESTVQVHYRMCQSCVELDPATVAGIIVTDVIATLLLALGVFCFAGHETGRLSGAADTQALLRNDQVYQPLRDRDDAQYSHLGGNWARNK
Sequence of CD3 (P09693 23-182 partner): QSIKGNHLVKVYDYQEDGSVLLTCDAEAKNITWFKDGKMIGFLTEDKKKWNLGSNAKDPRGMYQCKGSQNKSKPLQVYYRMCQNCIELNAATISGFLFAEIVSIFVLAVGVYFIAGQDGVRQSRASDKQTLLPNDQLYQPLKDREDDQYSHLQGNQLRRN

Turning to “rituximab: anti-CD20 monoclonal antibody”, the response rate with indolent lymphomas was 40%.

On to “Blinatumomab: bi-specific scFv-CD19×CD3 BiTE”, for which the “EC50 for target cell lysis in vitro” value with target cell was 10 to 100 pg/mL. The figures for the Kd with CD3 and with CD19 were roughly 100 nM and roughly 1 nM, respectively.

Broadly, the Emax is the size of the effect at its maximum, as opposed to the concentration needed. As usually defined, the inhibition is the relative decrease from the control value, in per cent. As to `C=CC(=O)N1CCC[C@@H](n2nc(-c3ccc(Oc4ccccc4)cc3)c3c(N)ncnc32)C1` [ibrutinib, 1-[(3R)-3-[4-Amino-3-(4-phenoxyphenyl)-1H-pyrazolo[3,4-d]pyrimidin-1-yl]piperidin-1-yl]prop-2-en-1-one, reference compound], in series [1] (ibrutinib 750 nM, read-out: inhibition in the maximal levels (Emax) of T-cell activation), the Emax at 0.75 µM was no more than 36%. Moreover, the maximal response (Emax) at 2.5 µM in series [1] (ibrutinib 2500 nM, read-out: inhibition in the maximal levels (Emax) of T-cell activation) was no more than 63%. For the same molecule, in [1] (ibrutinib ≦250 nm, vs untreated group, read-out: inhibition in the maximal levels (Emax) of T cell activation (% CD25)), the Emax is less than 20%. Besides, in the series with human T cells [2] (2500 nM, all time points), the IFN-γ result is recorded as “a small reduction in IFN-γ”. The “IL-10 and TNF-α production” value in the series with human T cells [2] (2500 nM, from 24 hours) is “decreased IL-10 and TNF-α production”. Besides, in the series with human T cells [2] (up to 750 nM, up to 72 hours), the “impact on TNF-α, IL-10 and IFN-γ release” value is “no or minimal impact”. The “impact on CD25+ upregulation” value with human T cells [3] (ibrutinib 750 nM) is listed as “some modest impact”. Further, in the series with human T cells [3] (ibrutinib 2500 nM, 24 hour), the “reduction in the number of CD4+/CD25+ T cells” value was roughly 60% and the “reduction in the number of CD8+/CD25+ T cells” value is listed as roughly 95%. In addition, in the series on human T cells [3] (ibrutinib ≦250 nM), the “inhibition of CD25 upregulation” value is recorded as “minimal or no inhibition”. For the same molecule, the “inhibition of concomitant T-cell activation and cytokine production” value with human PBMCs (ibrutinib 250 nM) is on record as “partial inhibition”. In addition, the “inhibition of concomitant T-cell activation and cytokine production” value in the series with human PBMCs (ibrutinib 2500 nM) is on record as “nearly complete inhibition”. Besides, the “increase in DART-A EC50 value” in the series on Raji/GF cells is roughly 3 fold. For the same molecule, in the series with Raji/GF target cells (ibrutinib 750 nM, both time points), the “increase of DART-A EC50 values” is on record as 8-9 fold. Also, the “inhibitory effect on DART-A-mediated redirected T-cell killing” value in the series on Raji/GF target cells (ibrutinib ≦250 nM) is reported as “no or minimal inhibitory effect”. Moreover, in the series on primary B-cell (CD20+) (Homo sapiens, B-cell, ibrutinib 750 nM), the inhibition at 0.75 µM is 8%. Besides, the inhibition at 2.5 µM in the series with primary B-cell (CD20+) (Homo sapiens, B-cell, ibrutinib 2500 nM) was 60%. Besides, the “inhibition of DART-A-mediated primary B-cell (CD20+) depletion” value in the series with primary B-cell (CD20+) (ibrutinib ≦250 nM) is “minimal to no inhibition”. In the series with human T cells [4], the “ability of T cells to respond to anti-CD3/CD28 and rhIL-2 stimulation (cell numbers)” value was “had no impact”. The “minimum (Ctrough) serum concentration” value in series [5] is 25 to 50 nM. In addition, the Cmax in series [5] (read-out: maximum (Cmax) serum concentration) is roughly 250 nM.
